Like-named read-outs stand apart in the source and are kept apart here.
Assays:
[1] = Particle size distribution (Cilas 1180) of as-received and jet milled API (Example 8); format: physicochemical
Description: Compound 2 API ‘as-received’ (Lots #2064-118-8, #2064-146-9, and # BPR-WS 1828-194D(2HCl)—B1-19) were analyzed for PSD on a Cilas 1180 particle size analyzer. Subsequently jet milled API batches B # L0441-20-JM51mmP1, B # L0441-20-JM51mmP2, B # L0441-20-JM51mmP3, and B # L0441-84-JM146mmP1 were also analyzed for PSD Approximately 50 mg Compound 2-2HCl was dispersed into 40 mL 0.2% (w/w) span 80 in n-hexanes (dispersant) and allowed to mix for 60 minutes. API was kept suspended in dispersant via stirring and sonication during test.
A jet milling study was performed on a batch of Compound 2 2HCl with jet mill Fluid Energy Asset #00170 outfitted with a 51 mm collection loop. Batches B # L0441-29-JM51mmP1, B # L0441-29-JM51mmP2, and B # L0441-29-JM51mmP3 were created from ˜10 g of Compound 2 lot # BPR-WS1828-194D(2HCl)-B1-19 subjected to 3 passes. Jet mill settings for grinder nozzle and pusher nozzle as follows: Pass 1 grinder nozzle=60 psi & pusher nozzle=80 psi, Pass 2 and 3 grinder nozzle=50 psi & pusher nozzle=70 psi.
After successfully jet milling on the R&D scale, B # L0441-84-JM146mmP1 was created from Compound 2-2HCl lot # BPR-17-87-B1-21d which was processed with a single pass to confirm GMP scale up conditions in the R&D laboratory by passing 85 g through the GMP jet mill Jet-O-Mizer Asset #01 16 Model 0101 outfitted with 146 mm collection loop using a standard nylon 4×48-inch collection sock inside a PTFE 4×48-inch sock to minimize fines loss. The pressure settings for the grinder and pusher nozzle were: Grinder nozzle 60 psi, Pusher nozzle 70 psi.

[2] = Plasma pharmacokinetics after single PO or IV administration (Example 5), LC-MS/MS; conditions: female, Sprague-Dawley, rat, plasma, dosed as 2HCl; for AUC(0-t): AUC0-last (hr*ng/mL) Mean ± StdDev; for Cmax: Cmax (ng/mL) Mean ± StdDev; for Tmax: Tmax (hr) Mean ± StdDev
Description: (§1) The animals used in this study were female Sprague Dawley Rats physiologically normal. At the time of receipt, mice were 200-225 g in weight. […] Ninety-four total animals were observed thereafter. The parenteral administration is performed by tail vein injection.
(§2) Compound 2 was provided in free base form and stored at −20° C., protected from light. Compound 2 was formulated in dosage form immediately prior to use. For oral administration of Compound 2 in ORA-Plus® drinking solution, Compound 2 was suspended in drinking solution ORA-Plus® (Perrigo; Minneapolis, Minn.). First, a mortar and pestle were used to smooth out the Compound 2 powder, then a small amount of ORA-Plus® was added, and next, the mixture was triturated to a thick, smooth paste. The remainder of the ORA-Plus® was added by geometric dilution. The Compound 2 free base and ORA-Plus® mixture was dispensed in a tight, light resistant amber bottle with appropriate labeling. This mixture was shaken well before using, protected from light and kept refrigerated if dosing was delayed. For oral administration of Compound 2 in citric acid buffer with Captisol®, Compound 2 free base powder was dissolved or suspended into 30% Captisol® (Cydex Pharmaceuticals; Lawrence, Kans.) in 60 mM citrate buffer (pH˜4.2) (citric acid and sodium citrate dehydrate (Sigma-Aldrich; St. Louis Mo.)) in sterile water) to each group's working concentration. […] A magnetic stir-bar was used to mix dosing solution, followed by sonication. For intravenous administration, Compound 2 free base powder was dissolved into 15% Captisol® in 5 mM citrate buffer (pH˜4.2) to each group's working concentration. A magnetic stirbar was used to mix dosing solution, followed by sonication. IV dosing solution of Compound 2 free base was filtered with a 0.2 m PVDF filter (Pall Life Sciences; Port Washington, N.Y.) prior to administration.
(§3) Dose levels of Compound 1 were based on the free base, not the salt.
(§4) Animals were randomized using random equilibration of body weights on Day 1 into one of 19 study groups, as shown in Table 23 (Groups 1-19), with 5 animals in each group, except for the 4 animals in Group 19. Body weights were collected Days 1, 2, 3, and/or 4 to accommodate data collection of staggered groups. Gross observations of body weight were noted during the course of the study.

[3] = female, Sprague Dawley, rat, in vivo, po
Description: as §1, §2, §3, §4

[4] = after jet milling, 51 mm collection loop
[5] = iv, 12 mg/kg, Group 18: 12 mg/kg IV, 0.9% Saline
[6] = iv, 24 mg/kg, Group 19: 24 mg/kg IV, 0.9% Saline
[7] = po, 24 mg/kg, Group 11: 24 mg/kg PO, ORA-Plus, single dose
[8] = po, 36 mg/kg, Group 12: 36 mg/kg PO, ORA-Plus
[9] = po, 36 mg/kg, Group 15: 36 mg/kg PO, 0.5% Methylcellulose in water
[10] = po, 48 mg/kg, Group 13: 48 mg/kg PO, ORA-Plus
[11] = po, 48 mg/kg, Group 16: 48 mg/kg PO, 0.5% Methylcellulose in water
[12] = po, 60 mg/kg, Group 14: 60 mg/kg PO, ORA-Plus
[13] = po, 60 mg/kg, Group 17: 60 mg/kg PO, 0.5% Methylcellulose in water

CC(C)(C)CNCCn1c(Sc2cc3c(cc2I)OCO3)nc2c(N)ncnc21 [B #132-L0441-20-JM51mmP1]
Particle size d10 [1, 4]: 3.1 μm
Particle size d50 [1, 4]: 7.9 μm
Particle size d90 [1, 4]: 17.3 μm
Particle size span [1, 4]: 14.2 μm
Particle size d90 ([1]; as quoted for the batches used in Example 9, listed as B # L0441-20-JM51mmP1): 17 um

CC(C)(C)CNCCn1c(Sc2cc3c(cc2I)OCO3)nc2c(N)ncnc21 [B #132-L0441-20-JM51mmP2]
Particle size d10 [1, 4]: 2.3 μm
Particle size d50 [1, 4]: 5.6 μm
Particle size d90 [1, 4]: 11.7 μm
Particle size span [1, 4]: 9.4 μm
Particle size d90 ([1]; as quoted for the batches used in Example 9, listed as B # L0441-20-JM51mmP2): 11 um

CC(C)(C)CNCCn1c(Sc2cc3c(cc2I)OCO3)nc2c(N)ncnc21 [B #132-L0441-20-JM51mmP3]
Particle size d10 [1, 4]: 2.0 μm
Particle size d50 [1, 4]: 4.8 μm
Particle size d90 [1, 4]: 10.1 μm
Particle size span [1, 4]: 8.1 μm

CC(C)NCCCn1c(Sc2cc3c(cc2I)OCO3)nc2c(N)ncnc21 [Compound 1]
AUC(0-t) [2, 5]: 2470 ± 573 ng·h/mL
Cmax [2, 5]: 1280 ± 325 ng/mL
Tmax [2, 5]: 0.25 h
AUC(0-t) [2, 6]: 5500 ± 2800 ng·h/mL
Cmax [2, 6]: 2080 ± 79.3 ng/mL
Tmax [2, 6]: 0.31 ± 0.13 h
AUC(0-t) [2, 7]: 2700 ± 462 ng·h/mL
Cmax [2, 7]: 807 ± 214 ng/mL
Tmax [2, 7]: 2 h
AUC(0-t) [2, 8]: 3220 ± 870 ng·h/mL
AUC(0-t) [2, 9]: 2850 ± 919 ng·h/mL
Cmax [2, 8]: 853 ± 193 ng/mL
Cmax [2, 9]: 812 ± 270 ng/mL
Tmax [2, 8]: 2 h
Tmax [2, 9]: 2.2 ± 1.1 h
AUC(0-t) [2, 10]: 6500 ± 2030 ng·h/mL
AUC(0-t) [2, 11]: 6500 ± 1690 ng·h/mL
Cmax [2, 10]: 1420 ± 470 ng/mL
Cmax [2, 11]: 1650 ± 271 ng/mL
Tmax [2, 10]: 2.4 ± 0.89 h
Tmax [2, 11]: 1.4 ± 0.55 h
AUC(0-t) [2, 12]: 4870 ± 1420 ng·h/mL
AUC(0-t) [2, 13]: 7320 ± 2440 ng·h/mL
Cmax [2, 12]: 1120 ± 175 ng/mL
Cmax [2, 13]: 1760 ± 458 ng/mL
Tmax [2, 12]: 3 ± 2 h
Tmax [2, 13]: 1.5 ± 0.71 h
% AUC0-last ORA vs methylcellulose Mean ± StdDev ([3]; 36 mg/kg): 119.11 ± 45.91%
% Cmax ORA vs methylcellulose Mean ± StdDev ([3]; 36 mg/kg): 118.75 ± 64.56%
% AUC0-last ORA vs methylcellulose Mean ± StdDev ([3]; 48 mg/kg): 111.81 ± 69.18%
% Cmax ORA vs methylcellulose Mean ± StdDev ([3]; 48 mg/kg): 89.30 ± 37.98%
% AUC0-last ORA vs methylcellulose Mean ± StdDev ([3]; 60 mg/kg): 70.33 ± 23.05%
% Cmax ORA vs methylcellulose Mean ± StdDev ([3]; 60 mg/kg): 66.16 ± 17.44%

— patent US20200069592A1, “HSP90 INHIBITOR ORAL FORMULATIONS AND RELATED METHODS” (Samus Therapeutics, Inc., priority 2017, published 2020)
